“And” between values parts separate entries of the source, which are not always exact repeats. Equal values may be shown once.
Test system: CCI-rats (chronic constriction injury of the sciatic nerve); tactile allodynia in ipsilateral hindpaw, antinociception in contralateral hindpaw
Parameters: species or system Sprague-Dawley rats
Settings: rat, in vivo

pGlu Gly Val Cys1 Cys2 Gly Tyr Lys Leu Cys3 His Hyp Cys4 [SEQ ID NO: 6]
ED10: 0.2 nmol | ED20: 0.4 nmol | ED50 for antinociception in the contralateral hindpaw: 15.2 nmol | ED50 for the alleviation of tactile allodynia in the ipsilateral hindpaw: 14.8 (±1.1) nmol and 15.7 (±3.9) nmol | change of mean PWT by 5 min post-dosing: more than doubled | duration of action: 2 to 3 h and > 4 h | duration of action relative to a similarly large dose of i.t. morphine (35 nmol): ~10 fold | duration of anti-allodynic response relative to the 10 nmol dose: > 7 fold and > 13 fold | duration of the anti-allodynic response: ~30 h and ~54 h | effect on PWT in both the ipsilateral and contralateral hindpaws: dose-dependent increase | extent and duration (PWT AUCs) of ipsilateral responses relative to contralateral responses: ~2 fold | time of peak anti-allodynic and antinociceptive effects: 1 to 1.5 h | time of peak antiallodynic and antinociceptive effects post-dosing: 15 min | time of peak effect: 1 to 1.5 h

— US8188048B2 (priority 2006, dated 2012)
